pIC50: −log10 of the molar value.
Tests used:
MKN-45 CDX xenografts = test: In vivo efficacy study, CDX model; design: species or system BALB/cA nude mice
Experimental: (§1) Human tumor xenografts were established in female BALB/cA nude mice (5-6 weeks old) by administering the SNU-5 and MKN-45 cells, which have high MET expression levels. For efficacy studies in patient-derived tumor xenograft (PDX) mouse models, MET-overexpressing GA0046 and GA3121 tumors (obtained from Crownbio, CA, USA) were established by directly implanting surgical tissues into immunodeficient mice. […] The subcutaneous tumor size and body weight were measured twice weekly. The tumor volumes were determined by measuring two perpendicular diameters with calipers and calculated as (length × width^2)/2.

SNU-5 CDX xenografts = test: In vivo efficacy study, CDX model; design: species or system BALB/cA nude mice
Experimental: as §1

C-KIT = C-KIT (Homo sapiens, UniProt P10721); test: Kinase inhibition assay (LANCE or HTRF); format: biochemical; conditions: ATP at Km
Experimental: The IC50 values were determined by measuring phosphorylation of peptide substrate poly at ATP concentrations at the Km.

HUVECs = test: Endothelial cell tubule formation assay, HGF-induced; format: cell-based; conditions: Homo sapiens, HUVEC, HGF 45 ng/ml, 8 hours
Text: Then, after staining with Calcein AM (ThermoFisher, CA, USA), images of tubule formation were captured, and the total tube area was quantified with ImageXpress HCS (Molecular Devices, CA, USA).

[1] = 3 mg/kg once per day oral gavage

Chain of C-KIT (P10721 26-976): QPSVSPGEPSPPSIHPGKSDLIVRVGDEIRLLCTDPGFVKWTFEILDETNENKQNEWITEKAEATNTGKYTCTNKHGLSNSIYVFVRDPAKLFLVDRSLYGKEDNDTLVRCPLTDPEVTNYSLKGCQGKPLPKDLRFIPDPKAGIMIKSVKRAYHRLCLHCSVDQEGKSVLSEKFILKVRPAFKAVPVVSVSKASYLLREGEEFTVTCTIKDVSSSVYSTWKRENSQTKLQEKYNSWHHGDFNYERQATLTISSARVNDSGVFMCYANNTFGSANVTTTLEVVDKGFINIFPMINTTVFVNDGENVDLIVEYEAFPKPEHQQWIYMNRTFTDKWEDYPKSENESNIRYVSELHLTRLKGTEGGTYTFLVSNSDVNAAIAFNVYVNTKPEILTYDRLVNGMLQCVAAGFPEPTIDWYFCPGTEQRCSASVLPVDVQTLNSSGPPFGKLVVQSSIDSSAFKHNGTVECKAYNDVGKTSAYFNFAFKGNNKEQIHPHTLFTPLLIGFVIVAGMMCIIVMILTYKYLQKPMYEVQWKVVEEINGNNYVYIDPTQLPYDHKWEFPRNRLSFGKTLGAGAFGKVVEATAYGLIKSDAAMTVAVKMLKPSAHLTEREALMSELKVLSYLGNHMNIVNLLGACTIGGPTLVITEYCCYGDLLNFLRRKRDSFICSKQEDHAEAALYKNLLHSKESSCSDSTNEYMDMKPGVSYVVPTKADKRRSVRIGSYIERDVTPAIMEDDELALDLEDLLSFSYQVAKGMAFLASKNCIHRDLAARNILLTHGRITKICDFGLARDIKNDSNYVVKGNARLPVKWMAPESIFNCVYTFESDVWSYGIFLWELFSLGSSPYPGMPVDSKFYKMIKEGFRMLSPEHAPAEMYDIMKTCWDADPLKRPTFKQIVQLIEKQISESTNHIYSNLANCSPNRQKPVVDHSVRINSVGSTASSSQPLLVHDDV

## Cc1c(C(=O)Nc2ccc(Oc3ccnc4cc(OCC(C)(C)O)ccc34)c(F)c2)c(=O)n(-c2ccccc2)n1C [CT053]
MKN-45 CDX xenografts; [1]
  TGI: 31%
MKN-45 CDX xenografts; 10 mg/kg once per day oral gavage
  TGI: 85%
MKN-45 CDX xenografts; 20 mg/kg once per day oral gavage
  TGI: 97%
SNU-5 CDX xenografts; 1 mg/kg once per day oral gavage
  TGI: 32%
SNU-5 CDX xenografts; [1]
  TGI: 87%
C-KIT
  pIC50: 6.02
HUVECs; read-out: IC50, percentage area of tube formation (+ HGF)
  pIC50: 6.51
HUVECs; read-out: IC90, Tube Area % Effect (+ HGF)
  IC90: > 3000 nM
